Assay results reported in ChEMBL document CHEMBL1129392, “Design, synthesis, and evolution of a novel, selective, and orally bioavailable class of thrombin inhibitors: P1-argininal derivatives incorporating P3-P4 lactam sulfonamide moieties” (J Med Chem, 1996).
pIC50, pKi: −log10 of the molar value.

Assays:
Prothrombin [1] = target: T1, Prothrombin (Homo sapiens, UniProt P00734); assay: In vitro for inhibition of serine protease thrombin(FIIa).
Coagulation factor X [2] = target: T2, Coagulation factor X (Homo sapiens, UniProt P00742); assay: compound was tested in vitro for inhibition of Coagulation factor X; inactive
Trypsin II = target: T3, Trypsin II (Bos taurus, UniProt Q29463); assay: compound was tested in vitro for inhibition of serine protease Trypsin.
T3 sequence (Q29463 whole entry): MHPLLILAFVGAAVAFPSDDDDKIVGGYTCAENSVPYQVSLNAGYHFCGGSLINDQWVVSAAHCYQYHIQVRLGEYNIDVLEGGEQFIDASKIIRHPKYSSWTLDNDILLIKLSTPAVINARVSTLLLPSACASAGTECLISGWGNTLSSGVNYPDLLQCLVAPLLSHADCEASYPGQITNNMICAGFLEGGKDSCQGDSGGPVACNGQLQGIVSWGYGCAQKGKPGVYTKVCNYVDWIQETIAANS

Serine protease 1 [3] = target: T4, Serine protease 1 (Homo sapiens, UniProt P07477); assay: In vitro for inhibition of serine protease Trypsin.
Coagulation factor X [4] = target: T2, Coagulation factor X
Description: In vitro for inhibition of Coagulation factor X

Prothrombin [5] = target: T1, Prothrombin; assay: compound was tested in vitro for inhibition of serine protease thrombin (FIIa); inactive
Serine protease 1 [6] = target: T4, Serine protease 1; assay: compound was tested in vitro for inhibition of serine protease Trypsin; inactive
Prothrombin [7] = target: T1, Prothrombin; assay: compound was tested in vitro for inhibition of serine protease thrombin(FIIa).
Coagulation factor X [8] = target: T2, Coagulation factor X; assay: compound was tested in vitro for inhibition of Coagulation factor X

T4 sequence (P07477 whole entry): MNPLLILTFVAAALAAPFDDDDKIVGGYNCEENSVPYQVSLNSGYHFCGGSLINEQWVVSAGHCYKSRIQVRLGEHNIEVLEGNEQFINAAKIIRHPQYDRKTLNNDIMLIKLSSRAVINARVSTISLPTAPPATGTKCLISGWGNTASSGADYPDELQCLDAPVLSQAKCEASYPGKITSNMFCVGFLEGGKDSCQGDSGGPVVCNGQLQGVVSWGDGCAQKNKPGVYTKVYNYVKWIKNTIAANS
T2 sequence (P00742 41-179 limits assumed): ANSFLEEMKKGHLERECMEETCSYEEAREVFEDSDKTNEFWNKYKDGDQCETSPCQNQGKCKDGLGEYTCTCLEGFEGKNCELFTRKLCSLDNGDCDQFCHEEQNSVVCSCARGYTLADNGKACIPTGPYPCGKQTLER
T2 sequence (P00742 235-488 limits assumed): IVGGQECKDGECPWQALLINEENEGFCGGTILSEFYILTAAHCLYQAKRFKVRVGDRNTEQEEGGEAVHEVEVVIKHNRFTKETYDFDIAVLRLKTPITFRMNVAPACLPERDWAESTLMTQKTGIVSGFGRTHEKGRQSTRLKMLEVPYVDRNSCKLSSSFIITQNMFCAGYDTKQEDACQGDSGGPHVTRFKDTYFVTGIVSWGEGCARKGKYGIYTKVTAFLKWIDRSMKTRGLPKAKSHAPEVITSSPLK

| SMILES | pIC50 (Prothrombin [1]) | pIC50 (Serine protease 1 [3]) | pIC50 (Coagulation factor X [4]) | also measured |
| --- | --- | --- | --- | --- |
| C[C@H](C(=O)N[C@H]1CCCC(C(=N)N)C1O)N1CCCC[C@H](NS(=O)(=O)Cc2ccccc2)C1=O (stereo not given in full) | < 5.60 | < 5.60 | – | IC50 (Coagulation factor X [2]): Not Active |
| N=C(N)C1CCC[C@H](NC(=O)CN2CCC[C@@H](NS(=O)(=O)Cc3ccccc3)C2=O)C1O (stereo not given in full) | 6.80 | 6.33 | 5.60 | – |
| N=C(N)C1CCC[C@H](NC(=O)CN2CCC[C@H](NC(=O)NS(=O)(=O)c3ccccc3)C2=O)C1O (stereo not given in full) | – | – | – | IC50 (Prothrombin [5]): Not Active; IC50 (Serine protease 1 [6]): Not Active; IC50 (Coagulation factor X [2]): Not Active |
| CCCCS(=O)(=O)N[C@H]1CCCN(CC(=O)N[C@H]2CCCC(C(=N)N)C2O)C1=O (stereo not given in full) | 6.15 | – | 5.60 | pIC50 (Trypsin II): 5.60 |
| N=C(N)C1CCC[C@H](NC(=O)CN2CCC[C@H](NS(=O)(=O)NC3CCCCC3)C2=O)C1O (stereo not given in full) | 6.63 | 6.83 | 5.71 | – |
| CC(C(=O)N[C@H]1CCCC(C(=N)N)C1O)N1CCC[C@H](NS(=O)(=O)Cc2ccccc2)C1=O (stereo not given in full) | 6.54 | – | 5.60 | pIC50 (Trypsin II): 6.53 |
| CCCC(CCC)C(=O)N[C@@H](CC(=O)OC)C(=O)N1CCC[C@@H]1C(=O)N[C@H]1CCCC(C(=N)N)C1O (stereo not given in full) | 8.96 | 8.87 | – | – |
| N=C(N)C1CCCC(NC(=O)CN2CC[C@H](NS(=O)(=O)Cc3ccccc3)C2=O)C1O (stereo not given in full) | – | – | – | pIC50 (Coagulation factor X [8]): 5.60; pIC50 (Trypsin II): 6.27; pIC50 (Prothrombin [7]): 6.90 |
| CN[C@H](Cc1ccccc1)C(=O)N1CCC[C@@H]1C(=O)N[C@H]1CCCC(C(=N)N)C1O (stereo not given in full) | 9.15 | 8.82 | < 5.60 | – |
| CC(C)(C)OC(=O)N[C@H]1CCCN(CC(=O)N[C@H]2CCCC(C(=N)N)C2O)C1=O (stereo not given in full) | – | 4.78 | 5.60 | – |
| N=C(N)C1CCC[C@H](NC(=O)CN2CCC[C@H](NS(=O)(=O)Cc3ccccc3)C2=O)C1O (stereo not given in full) | 8.21 | 6.10 | 5.60 | pKi (Prothrombin [7]): 9.00 |

Second part, led by results:

| pIC50 (Prothrombin [1]) | pIC50 (Serine protease 1 [3]) | pIC50 (Coagulation factor X [4]) | SMILES | also measured |
| --- | --- | --- | --- | --- |
| 5.60 | – | – | N=C(N)C1CCC[C@H](NC(=O)CN2CCC[C@H](NC(=O)Cc3ccccc3)C2=O)C1O (stereo not given in full) | IC50 (Coagulation factor X [2]): Not Active; pIC50 (Trypsin II): < 5.60 |
| 6.95 | – | 5.60 | N=C(N)C1CCC[C@H](NC(=O)CN2CCC[C@H](NS(=O)(=O)c3cccc4ccccc34)C2=O)[C@@H]1O (stereo not given in full) | pIC50 (Trypsin II): 5.99 |
| 9.15 | 7.13 | 7.69 | N=C(N)C1CCC[C@H](NC(=O)CN2CCCC[C@H](NS(=O)(=O)Cc3ccccc3)C2=O)C1O (stereo not given in full) | pKi (Prothrombin [7]): 9.27 |
| 7.85 | 7.78 | 6.32 | N=C(N)C1CCC[C@H](NC(=O)CN2CCCC[C@H](NS(=O)(=O)c3ccccc3)C2=O)C1O (stereo not given in full) | – |
| 6.38 | 5.60 | 5.60 | N=C(N)C1CCC[C@H](NC(=O)CN2CCC[C@H](NS(=O)(=O)CCc3ccccc3)C2=O)C1O (stereo not given in full) | – |
| 6.80 | 6.11 | 5.96 | N=C(N)C1CCC[C@H](NC(=O)CN2CCC[C@H](NS(=O)(=O)c3ccccc3)C2=O)C1O (stereo not given in full) | – |
| 8.95 | 6.86 | 6.33 | COC(=O)c1ccccc1CS(=O)(=O)N[C@H]1CCCCN(CC(=O)N[C@H]2CCCC(C(=N)N)C2O)C1=O (stereo not given in full) | pKi (Prothrombin [7]): 9.07 |
